# Test results: PMC8068036, “Synthesis of New Biscoumarin Derivatives, In Vitro Cholinesterase Inhibition, Molecular Modelling and Antiproliferative Effect in A549 Human Lung Carcinoma Cells” (International Journal of Molecular Sciences, 2021)
# Entries after “also recorded” stand apart in the source; their conditions may differ. Like-named read-outs stand apart in the source and are kept apart here.
# Assays:
# [1] = in vitro
# Description: The parallel artificial membrane permeability assay (PAMPA) is used as a non-cell-based in vitro assay to predict BBB penetration and is carried out in a coated 96-well membrane filter. In our assays, the filter membrane of the donor plate was coated with PBL (Polar Brain Lipid, Avanti, Denver, CO, USA) in dodecane (4 µL of 20 mg mL^−1 PBL in dodecane), and the acceptor well was filled with 300 µL of phosphate buffered saline (PBS) (pH 7.4; VA). The tested compounds were first dissolved in DMSO, and the resulting mixture was diluted with PBS (pH 7.4) to reach the final concentration (40–100 µM) in the donor well. […] Three hundred microliters of the donor solution (VD) were added to the donor wells, and the donor filter plate was carefully placed onto the acceptor plate to ensure that the coated membrane was “in contact” with both the donor solution and the acceptor buffer. The test compound diffused from the donor well through the polar brain lipid membrane (area = 0.28 cm^2) to the acceptor well. The concentration of the tested compound in both the donor and acceptor wells was assessed after 3, 4, 5, and 6 h of incubation, respectively, in quadruplicate using a UV plate reader Synergy HT (Biotek, Winooski, VT, USA) at the maximum absorption wavelength of each compound. Additionally, solutions at the theoretical equilibrium of the given compound (i.e., the theoretical concentration if the donor and acceptor compartment were simply combined) were also prepared.
# [2] = system: A549 cells; assay: MTT assay, A549; type: cell-based, human; conditions: for IC50: Homo sapiens
# Description: (§1) Human lung carcinoma cell line A549 and CCD-18Co colon fibroblasts were purchased from the American Type Culture Collection (ATCC, Rockville, MD, USA). The A549 cells were cultured in a complete RPMI-1640 medium (Sigma-Aldrich, St. Louis, MO, USA), and CCD-18Co cells were cultured in an MEM medium (PAN-Biotech GmbH, Aidenbach, Germany). The media were supplemented with 10% fetal bovine serum (FBS; Biosera, Nuaille, France) and antibiotics (1% Antibiotic-Antimycotic 100× and 50 × 10^−3 g l^−1 gentamicin; Biosera) at 37 °C, 95% humidity, and 5% CO2.
# (§2) Prior to the selected treatments, cells were seeded on 12-well μ-Chamber slides (ibidi GmbH, Martinsried, Germany) and 6 and/or 96-well plates (TPP, Trasadingen, Switzerland) and left to settle for 24 h. The biscoumarin derivative solutions (at concentrations ranging from 10–100 µM) were then added to cells for 24 or 48 h, and analysis was subsequently performed.
# (§3) MTT assays were performed in order to evaluate changes in the metabolic activity of cells that had occurred as a consequence of treatment with the biscoumarin derivatives. A549 cells (15 × 10^3 cells/cm^2) and CCD-18Co ([…]) were seeded in 96-well microplates. The cells were treated for 24 and 48 h with different concentrations (10, 25, 35, 50, 65, 75, and 100 µM) of the derivatives. After the treatment, the MTT (3-(4,5-dimethylthiazol-2-yl)-2,5-diphenyltertrazolium bromide) solution in PBS (5 mg mL^−1) was added to each well. […]. The absorbance of formazan (λ = 584 nm) was measured using a BMG FLUOstar Optima spectrometer (BMG Labtech GmbH, Offenburg, Germany). The results were evaluated as percentages of the absorbance of the untreated control. Results are presented as the average percentage of cells from three independent experiments. IC50 values for the derivatives were extrapolated from a sigmoidal fit (dose–response curve) to the metabolic activity data using OriginPro 8.5.0 SR1 (OriginLab Corp., Northampton, MA, USA).
# [3] = system: CCD-18Co fibroblasts; assay: MTT assay, CCD-18Co; type: cell-based; conditions: for IC50: Homo sapiens, CCD-18Co
# Description: as §1, §2, §3
# [4] = system: A549 cells; assay: Apoptosis by cleaved PARP immunolabelling; type: cell-based, human; conditions: A549, 24 h
# Description: The studied biscoumarin derivatives were added to cells seeded on 12-well μ-Chamber slides for 24 h. After cultivation with the derivatives, the samples (both the control without the derivatives and experimental groups) were washed with a 0.1 M PBS solution buffer to remove all non-cell-absorbed derivative residues and fixed with 4% paraformaldehyde for 20 min at RT. Alternatively, cells were incubated with Mitotracker Red (0.5 µM; Thermo Fisher Scientific, Waltham, MA, USA) for 30 min at 37 °C, washed with 0.1 M PBS, and fixed with 4% paraformaldehyde for 20 min at RT. For the quantification of proliferative activity and programmed cell death, samples were incubated overnight at 4 °C with the mouse anti-Ki67 antibody (NCL-L-Ki67-MM1, 1:100, Leica Biosystems, Wetzlar, Germany) and rabbit anti-cleaved PARP (cat. no. 94885, 1:100, Cell Signaling, Danvers, MA, USA) diluted in 0.1 M PBS containing 1% normal donkey serum (Jackson Immunoresearch, Cambridgeshire, Great Britain) and 0.3% Triton-X 100. […]
# All samples were evaluated using a Leica TCS SP5X confocal system (Leica Microsystems, Mannheim, Germany). The biscoumarin derivatives were visualized in cells using a 405 nm laser, and the fluorescence was captured in the range of 420–480 nm with identical exposure parameters for all samples. […]
smiles,measurement,setting,value
"COC(=O)Cc1cc(=O)oc2cc(OCCCCCCCCN3CCN(CCNC(=O)Cc4cc(=O)oc5cc(O)ccc45)CC3)ccc12 [12e, Methyl 2-[7-({2-[4-(2-{[2-(7-hydroxy-2-oxo-2H-4-chromenyl)acetyl]amino}etyl)piperazino]oktyl}oxy)-2-oxo-2H-4-chromenyl]acetate]",BBB permeability prediction (in words),[1]; PAMPA,positive outcome; also recorded: high probability of BBB permeability; also recorded: high probability to cross the BBB
same,Papp,"[1]; PAMPA, pH 7.4",13.4 ± 3.56 ×10⁻⁶ cm/s
same,CNS Predicted Availability,[1]; classification from PAMPA-BBB Pe,CNS+ (CNS+: high BBB permeation predicted with Pe (×10^−6 cm s^−1) > 4.0)
same,Metabolic activity of A549 cells (in words),"[2]; 10 to 100 μM, 24 and 48 h",significant decrease
same,IC50,"[2]; A549, 24 h, read-out: IC50 A549 24 h",49 µM
same,IC50,"[2]; A549, read-out: IC50 A549 48 h, 48 h",35 µM
same,Metabolic activity of CCD-18Co cells (in words),[3]; 24 or 48 h,significantly reduced metabolic activity
same,IC50,"[3]; 24 h, read-out: IC50 CCD-18Co 24 h",> 100 µM
same,IC50,"[3]; read-out: IC50 CCD-18Co 48 h, 48 h",> 100 µM
same,IC50,"[3]; time not stated, read-out: IC50 CCD-18Co",> 100 µM
same,Apoptotic cells (cleaved PARP),[4],≤ 0.001%
